Measured values published in PMC9571063 (Molecules, 2022).

Legend:
Experiment in all cases: KINOMEscan
[1] = molecular target: T1, BRAF (Homo sapiens, UniProt P15056); assay type: binding; conditions: read-out: Percent Control
T1 construct: purchased Eurofins DiscoverX KINOMEscan (scanMAX 468)

[2] = molecular target: T2, CAMK4 (Homo sapiens, UniProt Q16566); assay type: binding; conditions: read-out: Percent Control
T2 construct: purchased Eurofins DiscoverX KINOMEscan (scanMAX 468)

[3] = molecular target: T3, CAMKK2 (Homo sapiens, UniProt Q96RR4); assay type: binding; conditions: read-out: Percent Control
T3 construct: purchased Eurofins DiscoverX KINOMEscan (scanMAX 468)

[4] = molecular target: T4, CDC2L2 (Homo sapiens, UniProt Q9UQ88); assay type: binding; conditions: read-out: Percent Control
T4 construct: purchased Eurofins DiscoverX KINOMEscan (scanMAX 468)

[5] = molecular target: T5, CSNK1D (Homo sapiens, UniProt P48730); assay type: binding; conditions: read-out: Percent Control
T5 construct: purchased Eurofins DiscoverX KINOMEscan (scanMAX 468)

[6] = molecular target: T6, CSNK1G3 (Homo sapiens, UniProt Q9Y6M4); assay type: binding; conditions: read-out: Percent Control
T6 construct: purchased Eurofins DiscoverX KINOMEscan (scanMAX 468)

[7] = molecular target: T7, CTK (Homo sapiens, UniProt P42679); assay type: binding; conditions: read-out: Percent Control
T7 construct: purchased Eurofins DiscoverX KINOMEscan (scanMAX 468)

[8] = molecular target: T8, DCAMKL3 (Homo sapiens, UniProt Q9C098); assay type: binding; conditions: read-out: Percent Control
T8 construct: purchased Eurofins DiscoverX KINOMEscan (scanMAX 468)

[9] = molecular target: T9, DLK (Homo sapiens, UniProt Q12852); assay type: binding; conditions: read-out: Percent Control
T9 construct: purchased Eurofins DiscoverX KINOMEscan (scanMAX 468)

[10] = molecular target: T10, EGFR(T790M) (Homo sapiens, UniProt P00533, T790M); assay type: binding; conditions: read-out: Percent Control
T10 construct: purchased Eurofins DiscoverX KINOMEscan (scanMAX 468)

[11] = molecular target: T11, EPHA1 (Homo sapiens, UniProt P21709); assay type: binding; conditions: read-out: Percent Control
T11 construct: purchased Eurofins DiscoverX KINOMEscan (scanMAX 468)

[12] = molecular target: T12, EPHA5 (Homo sapiens, UniProt P54756); assay type: binding; conditions: read-out: Percent Control
T12 construct: purchased Eurofins DiscoverX KINOMEscan (scanMAX 468)

[13] = molecular target: T13, ERBB3 (Homo sapiens, UniProt P21860); assay type: binding; conditions: read-out: Percent Control
T13 construct: purchased Eurofins DiscoverX KINOMEscan (scanMAX 468)

[14] = molecular target: T14, FLT3(D835Y) (Homo sapiens, UniProt P36888, D835Y); assay type: binding; conditions: read-out: Percent Control
T14 construct: purchased Eurofins DiscoverX KINOMEscan (scanMAX 468)

[15] = system: FLT3(ITD,F691L); assay type: binding, human; conditions: 1 μM
[16] = molecular target: T15, FLT3(R834Q) (Homo sapiens, UniProt P36888, R834Q); assay type: binding; conditions: read-out: Percent Control
T15 construct: purchased Eurofins DiscoverX KINOMEscan (scanMAX 468)

[17] = molecular target: T16, FYN (Homo sapiens, UniProt P06241); assay type: binding; conditions: read-out: Percent Control
T16 construct: purchased Eurofins DiscoverX KINOMEscan (scanMAX 468)

[18] = molecular target: T17, GCN2(Kin.Dom.2,S808G) (Homo sapiens, UniProt Q9P2K8, S808G); assay type: binding; conditions: read-out: Percent Control
T17 construct: GCN2(Kin.Dom.2,S808G); purchased Eurofins DiscoverX KINOMEscan (scanMAX 468)

[19] = molecular target: T18, ICK (Homo sapiens, UniProt Q9UPZ9); assay type: binding; conditions: read-out: Percent Control
T18 construct: purchased Eurofins DiscoverX KINOMEscan (scanMAX 468)

[20] = molecular target: T19, MAP3K1 (Homo sapiens, UniProt Q13233); assay type: binding; conditions: read-out: Percent Control
T19 construct: purchased Eurofins DiscoverX KINOMEscan (scanMAX 468)

[21] = molecular target: T20, MAP3K3 (Homo sapiens, UniProt Q99759); assay type: binding; conditions: read-out: Percent Control
T20 construct: purchased Eurofins DiscoverX KINOMEscan (scanMAX 468)

[22] = molecular target: T21, MEK1 (Homo sapiens, UniProt Q02750); assay type: binding; conditions: read-out: Percent Control
T21 construct: purchased Eurofins DiscoverX KINOMEscan (scanMAX 468)

[23] = molecular target: T22, MEK3 (Homo sapiens, UniProt P46734); assay type: binding; conditions: read-out: Percent Control
T22 construct: purchased Eurofins DiscoverX KINOMEscan (scanMAX 468)

[24] = molecular target: T23, MEK6 (Homo sapiens, UniProt P52564); assay type: binding; conditions: read-out: Percent Control
T23 construct: purchased Eurofins DiscoverX KINOMEscan (scanMAX 468)

[25] = molecular target: T24, MINK (Homo sapiens, UniProt Q8N4C8); assay type: binding; conditions: read-out: Percent Control
T24 construct: purchased Eurofins DiscoverX KINOMEscan (scanMAX 468)

[26] = molecular target: T25, MRCKB (Homo sapiens, UniProt Q9Y5S2); assay type: binding; conditions: read-out: Percent Control
T25 construct: purchased Eurofins DiscoverX KINOMEscan (scanMAX 468)

[27] = molecular target: T26, MST2 (Homo sapiens, UniProt Q13188); assay type: binding; conditions: read-out: Percent Control
T26 construct: purchased Eurofins DiscoverX KINOMEscan (scanMAX 468)

[28] = molecular target: T27, MTOR (Homo sapiens, UniProt P42345); assay type: binding; conditions: read-out: Percent Control
T27 construct: purchased Eurofins DiscoverX KINOMEscan (scanMAX 468)

[29] = molecular target: T28, MYLK4 (Homo sapiens, UniProt Q86YV6); assay type: binding; conditions: read-out: Percent Control
T28 construct: purchased Eurofins DiscoverX KINOMEscan (scanMAX 468)

[30] = molecular target: T29, MYO3A (Homo sapiens, UniProt Q8NEV4); assay type: binding; conditions: read-out: Percent Control
T29 construct: purchased Eurofins DiscoverX KINOMEscan (scanMAX 468)

[31] = molecular target: T30, NDR2 (Homo sapiens, UniProt Q9Y2H1); assay type: binding; conditions: read-out: Percent Control
T30 construct: purchased Eurofins DiscoverX KINOMEscan (scanMAX 468)

[32] = molecular target: T31, PAK4 (Homo sapiens, UniProt O96013); assay type: binding; conditions: read-out: Percent Control
T31 construct: purchased Eurofins DiscoverX KINOMEscan (scanMAX 468)

[33] = molecular target: T32, PIK3CA(C420R) (Homo sapiens, UniProt P42336, C420R); assay type: binding; conditions: read-out: Percent Control
T32 construct: purchased Eurofins DiscoverX KINOMEscan (scanMAX 468)

[34] = molecular target: T33, PIM3 (Homo sapiens, UniProt Q86V86); assay type: binding; conditions: read-out: Percent Control
T33 construct: purchased Eurofins DiscoverX KINOMEscan (scanMAX 468)

[35] = molecular target: T34, PKN2 (Homo sapiens, UniProt Q16513); assay type: binding; conditions: read-out: Percent Control
T34 construct: purchased Eurofins DiscoverX KINOMEscan (scanMAX 468)

[36] = molecular target: T35, PLK3 (Homo sapiens, UniProt Q9H4B4); assay type: binding; conditions: read-out: Percent Control
T35 construct: purchased Eurofins DiscoverX KINOMEscan (scanMAX 468)

[37] = molecular target: T36, PRKCI (Homo sapiens, UniProt P41743); assay type: binding; conditions: read-out: Percent Control
T36 construct: purchased Eurofins DiscoverX KINOMEscan (scanMAX 468)

[38] = molecular target: T37, PRKCQ (Homo sapiens, UniProt Q04759); assay type: binding; conditions: read-out: Percent Control
T37 construct: purchased Eurofins DiscoverX KINOMEscan (scanMAX 468)

[39] = molecular target: T38, PRKD3 (Homo sapiens, UniProt O94806); assay type: binding; conditions: read-out: Percent Control
T38 construct: purchased Eurofins DiscoverX KINOMEscan (scanMAX 468)

[40] = molecular target: T39, PRP4 (Homo sapiens, UniProt Q13523); assay type: binding; conditions: read-out: Percent Control
T39 construct: purchased Eurofins DiscoverX KINOMEscan (scanMAX 468)

[41] = molecular target: T40, RSK1(Kin.Dom.2-C-terminal) (Homo sapiens, UniProt Q15418); assay type: binding; conditions: read-out: Percent Control
T40 construct: RSK1(Kin.Dom.2-C-terminal); purchased Eurofins DiscoverX KINOMEscan (scanMAX 468)

[42] = molecular target: T41, S6K1 (Homo sapiens, UniProt P23443); assay type: binding; conditions: read-out: Percent Control
T41 construct: purchased Eurofins DiscoverX KINOMEscan (scanMAX 468)

[43] = molecular target: T42, STK16 (Homo sapiens, UniProt O75716); assay type: binding; conditions: read-out: Percent Control
T42 construct: purchased Eurofins DiscoverX KINOMEscan (scanMAX 468)

T7 sequence (P42679 whole entry): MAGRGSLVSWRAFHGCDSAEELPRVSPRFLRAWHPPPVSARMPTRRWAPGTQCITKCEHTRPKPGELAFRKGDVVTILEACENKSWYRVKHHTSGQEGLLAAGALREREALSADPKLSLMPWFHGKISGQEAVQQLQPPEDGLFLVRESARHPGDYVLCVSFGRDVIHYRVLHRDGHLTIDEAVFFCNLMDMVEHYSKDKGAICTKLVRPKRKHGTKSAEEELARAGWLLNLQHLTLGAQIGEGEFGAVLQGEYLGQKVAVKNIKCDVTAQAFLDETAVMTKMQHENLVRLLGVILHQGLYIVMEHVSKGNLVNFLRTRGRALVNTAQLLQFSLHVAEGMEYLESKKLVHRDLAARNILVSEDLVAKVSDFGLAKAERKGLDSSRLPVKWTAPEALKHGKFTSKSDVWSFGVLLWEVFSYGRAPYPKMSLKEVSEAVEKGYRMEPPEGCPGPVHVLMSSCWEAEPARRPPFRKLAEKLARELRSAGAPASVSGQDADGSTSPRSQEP
T9 sequence (Q12852 whole entry): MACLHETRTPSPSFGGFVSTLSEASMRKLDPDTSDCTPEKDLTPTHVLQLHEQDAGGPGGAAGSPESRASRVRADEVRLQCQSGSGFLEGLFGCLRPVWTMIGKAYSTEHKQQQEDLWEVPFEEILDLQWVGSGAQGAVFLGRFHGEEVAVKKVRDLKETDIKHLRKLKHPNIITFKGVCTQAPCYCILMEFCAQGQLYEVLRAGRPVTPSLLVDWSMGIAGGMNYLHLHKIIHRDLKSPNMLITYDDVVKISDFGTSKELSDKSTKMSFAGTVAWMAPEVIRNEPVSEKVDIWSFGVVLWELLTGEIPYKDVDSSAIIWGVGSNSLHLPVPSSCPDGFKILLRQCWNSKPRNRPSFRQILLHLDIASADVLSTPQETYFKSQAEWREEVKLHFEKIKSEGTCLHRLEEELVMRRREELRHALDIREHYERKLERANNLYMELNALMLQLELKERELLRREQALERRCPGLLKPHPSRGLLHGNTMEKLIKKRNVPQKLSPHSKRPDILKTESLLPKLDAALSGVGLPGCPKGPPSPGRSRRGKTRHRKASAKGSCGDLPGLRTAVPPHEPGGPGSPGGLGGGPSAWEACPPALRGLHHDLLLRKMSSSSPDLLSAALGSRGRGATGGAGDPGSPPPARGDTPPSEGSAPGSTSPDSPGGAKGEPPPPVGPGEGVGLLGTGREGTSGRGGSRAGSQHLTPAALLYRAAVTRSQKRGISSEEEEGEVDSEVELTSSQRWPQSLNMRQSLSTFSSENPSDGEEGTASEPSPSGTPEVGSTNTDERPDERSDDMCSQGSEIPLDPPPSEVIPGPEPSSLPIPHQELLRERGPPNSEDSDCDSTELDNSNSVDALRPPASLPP
T34 sequence (Q16513 whole entry): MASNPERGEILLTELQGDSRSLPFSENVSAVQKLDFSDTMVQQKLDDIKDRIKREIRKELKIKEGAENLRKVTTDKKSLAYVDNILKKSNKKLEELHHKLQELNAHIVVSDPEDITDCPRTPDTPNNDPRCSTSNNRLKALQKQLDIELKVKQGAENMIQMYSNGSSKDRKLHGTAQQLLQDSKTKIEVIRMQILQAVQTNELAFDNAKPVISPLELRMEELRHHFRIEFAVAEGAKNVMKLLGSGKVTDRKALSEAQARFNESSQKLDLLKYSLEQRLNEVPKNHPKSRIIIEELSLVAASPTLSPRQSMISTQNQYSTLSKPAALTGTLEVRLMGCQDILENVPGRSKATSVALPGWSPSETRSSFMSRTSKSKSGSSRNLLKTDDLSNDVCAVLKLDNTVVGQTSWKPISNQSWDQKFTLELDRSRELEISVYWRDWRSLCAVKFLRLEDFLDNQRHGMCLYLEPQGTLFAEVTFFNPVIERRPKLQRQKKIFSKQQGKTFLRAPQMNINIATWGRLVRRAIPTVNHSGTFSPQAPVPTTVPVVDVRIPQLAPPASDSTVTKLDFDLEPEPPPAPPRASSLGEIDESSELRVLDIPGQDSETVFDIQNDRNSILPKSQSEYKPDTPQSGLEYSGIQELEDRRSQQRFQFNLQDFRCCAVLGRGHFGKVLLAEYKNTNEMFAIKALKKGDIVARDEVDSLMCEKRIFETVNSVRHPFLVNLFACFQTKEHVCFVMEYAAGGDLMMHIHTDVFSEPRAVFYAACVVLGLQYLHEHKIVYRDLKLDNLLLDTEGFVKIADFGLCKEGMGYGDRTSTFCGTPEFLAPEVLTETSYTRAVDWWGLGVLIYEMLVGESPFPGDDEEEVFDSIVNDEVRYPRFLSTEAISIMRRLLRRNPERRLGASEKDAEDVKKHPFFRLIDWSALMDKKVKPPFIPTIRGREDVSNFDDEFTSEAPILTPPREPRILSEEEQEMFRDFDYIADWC
T20 sequence (Q99759 whole entry): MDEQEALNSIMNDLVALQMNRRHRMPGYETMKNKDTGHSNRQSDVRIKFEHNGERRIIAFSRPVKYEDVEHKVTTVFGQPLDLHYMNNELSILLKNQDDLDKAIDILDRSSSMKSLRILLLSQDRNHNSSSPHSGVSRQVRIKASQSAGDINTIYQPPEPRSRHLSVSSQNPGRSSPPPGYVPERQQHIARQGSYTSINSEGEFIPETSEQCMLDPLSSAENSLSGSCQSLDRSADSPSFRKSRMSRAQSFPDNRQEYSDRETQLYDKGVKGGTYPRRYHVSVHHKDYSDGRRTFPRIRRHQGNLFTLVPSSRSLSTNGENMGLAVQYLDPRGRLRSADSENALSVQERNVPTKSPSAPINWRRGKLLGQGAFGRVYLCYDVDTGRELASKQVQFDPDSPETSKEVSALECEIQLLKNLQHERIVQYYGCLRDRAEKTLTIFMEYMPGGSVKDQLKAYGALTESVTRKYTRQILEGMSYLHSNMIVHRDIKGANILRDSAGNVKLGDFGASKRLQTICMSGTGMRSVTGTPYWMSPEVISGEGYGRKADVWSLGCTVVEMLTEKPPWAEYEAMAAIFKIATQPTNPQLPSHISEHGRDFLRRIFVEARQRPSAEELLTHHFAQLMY
T5 sequence (P48730 whole entry): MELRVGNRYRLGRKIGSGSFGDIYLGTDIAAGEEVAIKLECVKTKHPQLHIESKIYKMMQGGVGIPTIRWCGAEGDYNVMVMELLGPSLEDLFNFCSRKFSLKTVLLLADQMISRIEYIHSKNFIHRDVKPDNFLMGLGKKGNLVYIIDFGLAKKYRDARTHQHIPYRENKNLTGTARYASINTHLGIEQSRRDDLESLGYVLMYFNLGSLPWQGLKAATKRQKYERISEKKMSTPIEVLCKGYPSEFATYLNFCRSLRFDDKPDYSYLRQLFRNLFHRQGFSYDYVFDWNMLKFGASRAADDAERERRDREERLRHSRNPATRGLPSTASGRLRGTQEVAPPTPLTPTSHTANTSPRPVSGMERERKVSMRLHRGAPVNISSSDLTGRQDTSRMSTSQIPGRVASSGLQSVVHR
T41 sequence (P23443 whole entry): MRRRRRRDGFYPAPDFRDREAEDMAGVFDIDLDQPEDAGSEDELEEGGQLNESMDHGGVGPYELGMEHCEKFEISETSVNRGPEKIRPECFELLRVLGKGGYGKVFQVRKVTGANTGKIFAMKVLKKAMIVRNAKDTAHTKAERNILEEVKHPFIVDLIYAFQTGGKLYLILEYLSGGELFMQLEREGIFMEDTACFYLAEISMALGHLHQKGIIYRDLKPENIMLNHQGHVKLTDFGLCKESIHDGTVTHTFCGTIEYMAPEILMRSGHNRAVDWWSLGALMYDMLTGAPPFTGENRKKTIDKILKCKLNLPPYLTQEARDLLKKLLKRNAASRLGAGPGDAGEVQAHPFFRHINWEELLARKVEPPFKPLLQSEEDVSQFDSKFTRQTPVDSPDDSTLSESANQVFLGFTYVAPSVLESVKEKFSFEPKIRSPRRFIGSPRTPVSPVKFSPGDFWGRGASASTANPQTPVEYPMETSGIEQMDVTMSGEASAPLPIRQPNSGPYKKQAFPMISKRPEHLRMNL
T39 sequence (Q13523 whole entry): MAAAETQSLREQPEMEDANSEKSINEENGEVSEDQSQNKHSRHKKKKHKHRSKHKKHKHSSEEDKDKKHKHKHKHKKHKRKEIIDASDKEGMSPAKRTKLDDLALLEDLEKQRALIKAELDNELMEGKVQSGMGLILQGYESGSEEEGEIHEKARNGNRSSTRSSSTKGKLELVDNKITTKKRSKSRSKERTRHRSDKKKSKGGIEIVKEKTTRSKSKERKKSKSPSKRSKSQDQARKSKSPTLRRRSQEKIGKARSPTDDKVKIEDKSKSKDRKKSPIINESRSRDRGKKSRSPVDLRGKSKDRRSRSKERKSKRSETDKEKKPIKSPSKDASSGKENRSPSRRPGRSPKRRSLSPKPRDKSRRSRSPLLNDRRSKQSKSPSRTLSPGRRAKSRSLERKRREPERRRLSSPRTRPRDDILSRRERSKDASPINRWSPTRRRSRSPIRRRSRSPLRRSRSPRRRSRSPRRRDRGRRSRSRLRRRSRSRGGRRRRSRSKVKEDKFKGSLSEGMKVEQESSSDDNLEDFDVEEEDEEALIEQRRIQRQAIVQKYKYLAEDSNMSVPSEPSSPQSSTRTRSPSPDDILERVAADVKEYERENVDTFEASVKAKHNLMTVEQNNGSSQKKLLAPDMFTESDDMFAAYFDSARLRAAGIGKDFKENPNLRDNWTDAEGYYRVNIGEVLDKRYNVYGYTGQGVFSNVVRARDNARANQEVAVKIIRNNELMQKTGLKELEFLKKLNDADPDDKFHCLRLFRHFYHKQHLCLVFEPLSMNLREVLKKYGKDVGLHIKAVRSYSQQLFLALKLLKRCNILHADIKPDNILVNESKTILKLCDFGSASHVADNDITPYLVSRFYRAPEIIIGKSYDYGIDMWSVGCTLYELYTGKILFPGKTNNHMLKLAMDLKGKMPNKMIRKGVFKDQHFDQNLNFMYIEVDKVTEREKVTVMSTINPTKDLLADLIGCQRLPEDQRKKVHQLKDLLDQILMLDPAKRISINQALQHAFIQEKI

Cc1ccc(-n2cc(COc3cccc4cnc(Nc5cccc(Cl)c5)nc34)nn2)c([N+](=O)[O-])c1 [DB18]
remaining binding at 1 µM [1]: 93% | remaining binding at 1 µM [2]: 100% | remaining binding at 1 µM [3]: 100% | remaining binding at 1 µM [4]: 100% | remaining binding at 1 µM [5]: 100% | remaining binding at 1 µM [6]: 100% | remaining binding at 1 µM [7]: 96% | remaining binding at 1 µM [8]: 100% | remaining binding at 1 µM [9]: 100% | remaining binding at 1 µM [10]: 100% | remaining binding at 1 µM [11]: 95% | remaining binding at 1 µM [12]: 100% | remaining binding at 1 µM [13]: 99% | remaining binding at 1 µM [14]: 29% | Percent Control [15]: 94 % Ctrl | remaining binding at 1 µM [16]: 87% | remaining binding at 1 µM [17]: 93% | remaining binding at 1 µM [18]: 100% | remaining binding at 1 µM [19]: 81% | remaining binding at 1 µM [20]: 98% | remaining binding at 1 µM [21]: 99% | remaining binding at 1 µM [22]: 97% | remaining binding at 1 µM [23]: 98% | remaining binding at 1 µM [24]: 99% | remaining binding at 1 µM [25]: 95% | remaining binding at 1 µM [26]: 94% | remaining binding at 1 µM [27]: 100% | remaining binding at 1 µM [28]: 55% | remaining binding at 1 µM [29]: 94% | remaining binding at 1 µM [30]: 100% | remaining binding at 1 µM [31]: 95% | remaining binding at 1 µM [32]: 100% | remaining binding at 1 µM [33]: 100% | remaining binding at 1 µM [34]: 100% | remaining binding at 1 µM [35]: 100% | remaining binding at 1 µM [36]: 98% | remaining binding at 1 µM [37]: 96% | remaining binding at 1 µM [38]: 100% | remaining binding at 1 µM [39]: 100% | remaining binding at 1 µM [40]: 100% | remaining binding at 1 µM [41]: 100% | remaining binding at 1 µM [42]: 94% | remaining binding at 1 µM [43]: 41%
